Compound: Cc1nc(C(=O)NCC(=O)O)c(O)c2ccc(Oc3ccccc3)cc12 [FG-4592] + O=C(CCCCCCC(=O)Nc1ccccc1)NO [Vorinostat] (partner 1 µM)
Assay: relative viability (nuclei count vs DMSO), 5 days (fraction); higher = more cells survive
Conditions: first compound 0.8 µM
How it was run: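 Relative viability divides the nuclei count in treated wells by that in vehicle wells. Lung cancer cell lines were seeded in 1536-well plates, dosed by pin tool the next day, and fixed and stained after 5 days in one step with final 0.05% Triton X-100, 1% formaldehyde and 1 ug/ml Hoechst. Dosing was a single drug or a fixed anchor-drug dose plus five library-drug doses (not always all listed) in √10 steps, and values are medians of duplicate plates imaged at 4×.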

Which relative viability does the source give for NCI-H2342 here?
Its relative viability is 0.697.

SK-MES-1 was tested. Which relative viability did it give?
Its relative viability is 1.02.

With H3255 as the cell line, how does the relative viability read?
Its relative viability is 0.721.

For COR-L23, which relative viability is on record?
Its relative viability is 0.427.

COR-L 105 was tested. Which relative viability did it give?
Its relative viability is 0.843.

For IA-LM, which relative viability is on record?
The relative viability was 0.814.

How did the relative viability turn out when LOU-NH91 was run?
Its relative viability is 0.817.

How did the relative viability turn out when ChaGo-K-1 was run?
Its relative viability is 0.687.

With NCI-H2170 as the cell line, how does the relative viability read?
The relative viability was 0.627.

How did the relative viability turn out when NCI-H2405 was run?
The relative viability was 0.92.

Which relative viability does the source give for HCC-44 here?
The relative viability was 1.2.

How did the relative viability turn out when NCI-H1395 was run?
Its relative viability is 0.493.

For NCI-H1944, which relative viability is on record?
The relative viability was 0.461.

NCI-H358 was tested. Which relative viability did it give?
The relative viability was 0.745.

Same assay, conditions: first compound 2.53 µM

With NCI-H522 as the cell line, how does the relative viability read?
Its relative viability is 0.724.

How did the relative viability turn out when NCI-H727 was run?
Its relative viability is 1.33.

NCI-H1650 was tested. Which relative viability did it give?
Its relative viability is 0.55.

For NCI-H1993, which relative viability is on record?
Its relative viability is 0.642.

SW 1573 was tested. Which relative viability did it give?
The relative viability was 0.543.

With NCI-H838 as the cell line, how does the relative viability read?
Its relative viability is 0.839.

How did the relative viability turn out when LCLC-103H was run?
Its relative viability is 0.707.

For NCI-H520, which relative viability is on record?
Its relative viability is 0.702.

With NCI-H2126 as the cell line, how does the relative viability read?
The relative viability was 0.509.

With EMC-BAC-2 as the cell line, how does the relative viability read?
The relative viability was 0.561.

NCI-H2085 was tested. Which relative viability did it give?
The relative viability was 0.769.

With HCC-366 as the cell line, how does the relative viability read?
Its relative viability is 0.308.

Which relative viability does the source give for NCI-H1666 here?
The relative viability was 1.08.

NCI-H596 was tested. Which relative viability did it give?
Its relative viability is 0.637.

Which relative viability does the source give for LK-2 here?
Its relative viability is 0.208.

How did the relative viability turn out when NCI-H2342 was run?
Its relative viability is 0.681.

For SK-MES-1, which relative viability is on record?
The relative viability was 0.947.

Which relative viability does the source give for H3255 here?
Its relative viability is 0.693.

How did the relative viability turn out when COR-L23 was run?
Its relative viability is 0.337.

Which relative viability does the source give for COR-L 105 here?
Its relative viability is 0.699.

IA-LM was tested. Which relative viability did it give?
Its relative viability is 0.943.

Which relative viability does the source give for LOU-NH91 here?
Its relative viability is 0.866.

For ChaGo-K-1, which relative viability is on record?
The relative viability was 0.758.

NCI-H2170 was tested. Which relative viability did it give?
The relative viability was 0.785.

For NCI-H2405, which relative viability is on record?
The relative viability was 0.942.

How did the relative viability turn out when HCC-44 was run?
The relative viability was 1.16.

For SW 900, which relative viability is on record?
Its relative viability is 0.548.

Which relative viability does the source give for NCI-H1648 here?
The relative viability was 0.349.

NCI-H1395 was tested. Which relative viability did it give?
The relative viability was 0.675.

Which relative viability does the source give for NCI-H1793 here?
The relative viability was 0.638.

NCI-H1944 was tested. Which relative viability did it give?
Its relative viability is 0.512.

With ABC-1 as the cell line, how does the relative viability read?
The relative viability was 1.14.

Which relative viability does the source give for NCI-H358 here?
Its relative viability is 0.88.

Same assay, conditions: first compound 8 µM

How did the relative viability turn out when NCI-H522 was run?
The relative viability was 0.89.

For NCI-H727, which relative viability is on record?
The relative viability was 1.21.

NCI-H1650 was tested. Which relative viability did it give?
The relative viability was 0.465.

For NCI-H1993, which relative viability is on record?
Its relative viability is 0.814.

SW 1573 was tested. Which relative viability did it give?
The relative viability was 0.494.

For NCI-H838, which relative viability is on record?
The relative viability was 0.705.

LCLC-103H was tested. Which relative viability did it give?
The relative viability was 0.747.

Which relative viability does the source give for NCI-H520 here?
The relative viability was 0.673.

Which relative viability does the source give for NCI-H2126 here?
The relative viability was 0.73.

For EMC-BAC-2, which relative viability is on record?
The relative viability was 0.366.

For NCI-H2085, which relative viability is on record?
The relative viability was 0.771.

For HCC-366, which relative viability is on record?
The relative viability was 0.33.

For NCI-H1666, which relative viability is on record?
Its relative viability is 1.03.

Which relative viability does the source give for NCI-H596 here?
The relative viability was 0.584.

With LK-2 as the cell line, how does the relative viability read?
The relative viability was 0.214.

NCI-H2087 was tested. Which relative viability did it give?
The relative viability was 0.869.

Which relative viability does the source give for NCI-H2342 here?
The relative viability was 0.651.

Which relative viability does the source give for SK-MES-1 here?
The relative viability was 1.02.

H3255 was tested. Which relative viability did it give?
Its relative viability is 0.84.

How did the relative viability turn out when COR-L23 was run?
Its relative viability is 0.457.

For COR-L 105, which relative viability is on record?
Its relative viability is 0.769.

Which relative viability does the source give for IA-LM here?
The relative viability was 1.04.

With LOU-NH91 as the cell line, how does the relative viability read?
Its relative viability is 0.95.

ChaGo-K-1 was tested. Which relative viability did it give?
The relative viability was 0.693.

Which relative viability does the source give for NCI-H2170 here?
Its relative viability is 0.608.

NCI-H2405 was tested. Which relative viability did it give?
Its relative viability is 0.961.

For HCC-44, which relative viability is on record?
The relative viability was 1.11.

For SW 900, which relative viability is on record?
The relative viability was 0.469.

Which relative viability does the source give for NCI-H1648 here?
The relative viability was 0.708.

How did the relative viability turn out when NCI-H1395 was run?
Its relative viability is 0.623.

NCI-H1793 was tested. Which relative viability did it give?
Its relative viability is 0.678.

NCI-H1944 was tested. Which relative viability did it give?
Its relative viability is 0.561.

— the supplement of paper PMC10307832
